Measurements published in patent publication US20200289482A1, “CYSTIC FIBROSIS TRANSMEMBRANE CONDUCTANCE REGULATOR MODULATORS FOR TREATING AUTOSOMAL DOMINANT POLYCYSTIC KIDNEY DISEASE” (The Johns Hopkins University, priority 2017, published 2020).

Legend:
Hsp90 = assay: Western blot of Hsp90 in kidney tissue lysates; format: in vivo, mouse; conditions: cyst induced pkd−/− mice, VX-809 30 mg/kg BW
Experimental: FIG. 7A, FIG. 7B, FIG. 7C, FIG. 7D, FIG. 7E, and FIG. 7F show chaperone expression is altered in mice by VX-809. (FIG. 7A-FIG. 7B) Representative Western blot images of HSP27, 70, 90 and HSP40 in lysates of kidney tissue from no cyst induced (ND), cyst induced with Doxycycline (D) or cyst induced pkd−/− mice treated with VX-809 (D+VX-809) 30 mg/kg BW. (FIG. 7C, FIG. 7D, FIG. 7E, and FIG. 7F) Columns represent averages±standard errors of HSP27, 70, 90 and HSP40 expression. Data were analyzed by non-parametric t-test. n=4 for each treated and control groups. Black lines between lanes represent representative experiments from the same gel. *P<0.05; **P<0.01; To facilitate their growth in the kidney, cysts have developed an altered network of proteins that most likely serves to protect them from stress (34). Next, it was determined whether VX-809 would alter the levels of Hsps in pkd−/− mice and in PN cells. […] Hsp 27, 70 and 90 are all elevated in cystic kidneys compared to normal controls. […] There is no change in Hsp 40. […] Both sets of data are consistent with an alteration in the heat shock response to cyst growth.

CFTR = CFTR (Mus musculus, UniProt P26361); assay: Biotinylation of CFTR in PN cells; format: cell-based; set-up: endogenous in cells; host or cells: PN (Pkd1-null mouse proximal tubule) cells; conditions: VX-809 treatment vs control PN cells
Experimental: FIG. 19A, FIG. 19B, FIG. 19C, and FIG. 19D show CFTR expression in PN cells treated with VX-809 (10 μM) for 16 h.
The expression of CFTR was evaluated in PN cells treated with VX-809 and control PN cells. PN cells were treated with 10 μM VX-809 for 16 h or a control.

[1] = test system: intracellular Ca2+ in PN cells; assay: Fura-2 Ca2+ imaging assay; format: cell-based, mouse; conditions: VX-809 10 μM 16 h
Experimental: FIG. 5A, FIG. 5B, FIG. 5C, FIG. 5D, FIG. 5E, and FIG. 5F show intracellular Ca2+ (F340/F380) levels obtained by ratiometric Fura-2 AM analysis of PN cells treated with VX-809 (10 μM) for 16 h. (FIG. 5A) Representative traces of intracellular Ca2+ release in response to ATP (100 μM) in PN cells and cells treated with VX-809 (10 μM). (FIG. 5B, FIG. 5C) Graphs summarizing resting calcium levels (FIG. 5B) and the average amplitude of Ca2+ release (FIG. 5C) in response to ATP. (FIG. 5D) Representative traces of ER Ca2+ release in response to thapsigargin (4 μM) in PN cells treated with VX-809. (FIG. 5E, FIG. 5F) Resting calcium levels (FIG. 5E) and the average amplitude of Ca2+ release (FIG. 5F) in response to thapsigargin. Amplitude was measured as the […] of the signal base to peak Δf/f. Significance between the two groups was analyzed using Student's t-test, n=4-5). *P<0.05, ***P<0.001.
Ca^2+-dependent signal transduction is associated with cyst formation (26), (29). […] To address the effect of VX-809 on this Ca^2+ release, the cells were treated with thapsigargin, a specific inhibitor of the ER Ca^2+-ATPase which, when applied, allows Ca^2+ to leak out of the ER through independent Ca^2+-permeable pathways (33). A small effect of VX-809 on resting Ca^2+ was observed.
On Day 5 of cell culture, the cells were loaded with the cell-permeant acetoxymethyl (AM) ester of the calcium indicator fura-2 (fura-2/AM) at 37° C. for 90 min. Measurements were made on a Zeiss inverted microscope equipped with a Sutter Lambda 10-2 controller and filter wheel assembly. For ATP stimulation experiments, the cells were exposed to 100 μM ATP diluted in the imaging buffer. A Zeiss FluorArc mercury lamp was used to excite the cells at 340 and 380 nm, and the emission response was measured at 510 nm. Cell fluorescence was measured in response to excitation for 1000 ms at 340 nm and 200 ms at 380 nm once every 4 s. Image acquisition, image analysis, and filter wheel control were performed with IPLab software (see (25)).

GADD153 = assay: Immunostaining for GADD153 in mouse kidney sections; format: in vivo; conditions: PN21 mice, VX-809 vs DMSO
Excerpt: FIG. 12A, FIG. 12B, and FIG. 12C show GADD153 expression in kidneys of Pkd1^fl/fl; Pax8^rtTA; TetO-cre mice. Immunoflourescence images representing the GADD expression (green) in DMSO (FIG. 12A) or VX-809 (FIG. 12B) treated PN21 Pkd1^fl/fl in mouse. Columns (FIG. 12C) represent % area of GADD immunopositive (green) cells in DMSO or VX-809 treated PN21 Pkd1^fl/fl in mouse kidney sections. Data are expressed as mean 1+1 SEM of DMSO (vehicle)-treated (n=4) and VX-809-treated (n=4) mice. Statistical analysis was performed using a 2-tailed Student t-test. DMSO, dimethyl sulfoxide. Kidneys were fixed in 4% paraformaldehyde as described (62). Used here was the GADD153 antibody (Sc-7351), goat antirabbit (A21429, AlexaFluor 555, 1:1,000; Life Technologies, Carlsbad, Calif.) and DAPI (H-1200; Vector Laboratories, Burlingame, Calif.). […] Cells positive for GADD153 and the total number of cells were measured with ImageJ. The results are expressed as percentages;
Given that VX-809 alters an ensemble of Hsps, it was evaluated whether VX-809 alters proteins associated with ER stress. To address this question, the levels of three ER stress-associated proteins were measured, 78-kDa glucose-regulated protein (GRP78), ER oxidoreductin 1 (Ero1) and DNA damage-inducible protein 3 (GADD153), also known as C/EBP homologous protein (CHOP) (37). […]

Sequence of CFTR (P26361 whole entry): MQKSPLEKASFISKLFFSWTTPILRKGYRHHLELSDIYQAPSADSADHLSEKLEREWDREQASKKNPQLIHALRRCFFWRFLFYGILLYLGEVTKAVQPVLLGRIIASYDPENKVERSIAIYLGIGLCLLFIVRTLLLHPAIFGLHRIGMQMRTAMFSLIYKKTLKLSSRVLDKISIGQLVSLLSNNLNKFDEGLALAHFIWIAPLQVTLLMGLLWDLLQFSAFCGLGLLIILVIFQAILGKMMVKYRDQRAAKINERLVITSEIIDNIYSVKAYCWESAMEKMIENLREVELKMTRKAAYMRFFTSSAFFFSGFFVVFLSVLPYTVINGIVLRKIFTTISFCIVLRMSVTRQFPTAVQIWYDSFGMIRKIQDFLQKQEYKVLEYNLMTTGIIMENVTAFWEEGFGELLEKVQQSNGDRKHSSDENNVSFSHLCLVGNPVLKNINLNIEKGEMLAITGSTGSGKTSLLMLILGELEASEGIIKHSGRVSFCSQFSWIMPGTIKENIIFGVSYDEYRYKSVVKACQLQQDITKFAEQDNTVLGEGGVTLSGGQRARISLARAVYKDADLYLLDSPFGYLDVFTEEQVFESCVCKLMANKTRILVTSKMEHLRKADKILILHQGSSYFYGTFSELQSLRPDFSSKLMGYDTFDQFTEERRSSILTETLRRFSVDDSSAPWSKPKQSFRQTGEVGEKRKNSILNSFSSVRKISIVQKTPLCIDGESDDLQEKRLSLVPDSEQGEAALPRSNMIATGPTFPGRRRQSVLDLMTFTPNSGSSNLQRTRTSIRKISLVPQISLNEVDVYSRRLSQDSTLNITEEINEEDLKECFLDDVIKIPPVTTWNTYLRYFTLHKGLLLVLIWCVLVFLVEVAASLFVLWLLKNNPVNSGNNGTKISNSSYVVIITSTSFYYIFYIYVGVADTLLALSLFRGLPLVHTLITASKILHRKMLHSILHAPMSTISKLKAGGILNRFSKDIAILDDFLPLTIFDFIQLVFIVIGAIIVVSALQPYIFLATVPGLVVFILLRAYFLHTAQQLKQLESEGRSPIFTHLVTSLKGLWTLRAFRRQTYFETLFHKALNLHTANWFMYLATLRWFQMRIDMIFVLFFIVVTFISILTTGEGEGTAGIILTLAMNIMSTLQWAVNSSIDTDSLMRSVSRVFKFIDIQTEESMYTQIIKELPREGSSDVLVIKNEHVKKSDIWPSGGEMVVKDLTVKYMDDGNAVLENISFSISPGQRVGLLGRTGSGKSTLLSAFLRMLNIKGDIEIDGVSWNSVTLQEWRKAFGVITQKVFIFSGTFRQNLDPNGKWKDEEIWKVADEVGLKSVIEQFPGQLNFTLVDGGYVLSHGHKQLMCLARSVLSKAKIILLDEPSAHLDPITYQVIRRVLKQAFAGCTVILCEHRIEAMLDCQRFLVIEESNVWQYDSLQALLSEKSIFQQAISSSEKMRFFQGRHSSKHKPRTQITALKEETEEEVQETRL

Substance: lumacaftor [VX-809]
- Hsp90 expression in kidneys (Hsp90): significantly less expression
- biotinylation of CFTR (CFTR): significantly increased
- resting Ca2+ [1]: small reduction in resting Ca^2+
- intracellular Ca2+ movement in response to ATP ([1]; ATP 100 μM): no effect on intracellular Ca^2+ movement in response to ATP
- thapsigargin-induced release of Ca2+ from the ER ([1]; thapsigargin 4 μM): dramatically reduced the thapsigargin-induced release of Ca^2+ from the ER
- GADD153 immunostaining in kidneys (GADD153): strong reduction
